# Measurements: patent publication US20250223607A1, “HPPD Variants and Methods of Use” (BASF Agricultural Solutions Seed US LLC, priority 2013, published 2025)
# T1: HPPD enzyme “SEQ ID No. 32” (Arabidopsis thaliana, UniProt P93836)
# T1 construct: made in house; host or cells: E. coli BL21 (DE3)
# T1 sequence (P93836 with tags, fused parts or gaps): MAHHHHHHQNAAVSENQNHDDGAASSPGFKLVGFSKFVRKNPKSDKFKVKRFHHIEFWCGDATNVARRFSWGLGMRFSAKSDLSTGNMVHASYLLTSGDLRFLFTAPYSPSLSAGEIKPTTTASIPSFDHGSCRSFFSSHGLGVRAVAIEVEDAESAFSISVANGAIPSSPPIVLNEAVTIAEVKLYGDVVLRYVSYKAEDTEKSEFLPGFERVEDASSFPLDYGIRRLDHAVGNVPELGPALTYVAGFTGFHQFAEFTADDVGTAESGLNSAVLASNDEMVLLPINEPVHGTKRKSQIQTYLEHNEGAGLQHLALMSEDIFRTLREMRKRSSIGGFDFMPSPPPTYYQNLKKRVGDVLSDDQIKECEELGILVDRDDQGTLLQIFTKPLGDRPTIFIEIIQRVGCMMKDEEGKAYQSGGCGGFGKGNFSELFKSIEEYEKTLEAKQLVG
# T2: Arabidopsis thaliana wild type HPPD “SEQ ID No. 32” (Arabidopsis thaliana, UniProt P93836)
# T2 construct: made in house; host or cells: E. coli BL21 (DE3)
# T2 sequence (P93836 with tags, fused parts or gaps): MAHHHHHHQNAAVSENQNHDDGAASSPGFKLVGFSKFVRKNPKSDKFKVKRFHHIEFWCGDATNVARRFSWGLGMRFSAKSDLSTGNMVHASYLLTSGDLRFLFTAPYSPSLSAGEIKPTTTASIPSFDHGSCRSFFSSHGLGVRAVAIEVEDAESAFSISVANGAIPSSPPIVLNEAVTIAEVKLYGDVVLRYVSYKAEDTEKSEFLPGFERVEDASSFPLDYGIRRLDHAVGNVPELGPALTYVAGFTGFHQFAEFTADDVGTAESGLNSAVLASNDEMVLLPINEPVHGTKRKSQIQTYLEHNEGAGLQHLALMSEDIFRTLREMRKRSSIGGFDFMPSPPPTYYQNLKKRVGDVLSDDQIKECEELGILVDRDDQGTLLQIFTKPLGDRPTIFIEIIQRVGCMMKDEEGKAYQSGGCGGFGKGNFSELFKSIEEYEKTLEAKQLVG
# B1: S267A: point mutant S267A of A. thaliana HPPD with N-terminal alanine and 6 histidines (protein)
# chain: MAHHHHHHQNAAVSENQNHDDGAASSPGFKLVGFSKFVRKNPKSDKFKVKRFHHIEFWCGDATNVARRFSWGLGMRFSAKSDLSTGNMVHASYLLTSGDLRFLFTAPYSPSLSAGEIKPTTTASIPSFDHGSCRSFFSSHGLGVRAVAIEVEDAESAFSISVANGAIPSSPPIVLNEAVTIAEVKLYGDVVLRYVSYKAEDTEKSEFLPGFERVEDASSFPLDYGIRRLDHAVGNVPELGPALTYVAGFTGFHQFAEFTADDVGTAESGLNAAVLASNDEMVLLPINEPVHGTKRKSQIQTYLEHNEGAGLQHLALMSEDIFRTLREMRKRSSIGGFDFMPSPPPTYYQNLKKRVGDVLSDDQIKECEELGILVDRDDQGTLLQIFTKPLGDRPTIFIEIIQRVGCMMKDEEGKAYQSGGCGGFGKGNFSELFKSIEEYEKTLEAKQLVG
# modifications: N-terminal alanine and His6 tag; encoded by SEQ ID No. 33; SITE 2 MISC_FEATURE - Ala; MISC_FEATURE - His Tag made of 6 His
# notes: point mutant S267A of A. thaliana HPPD with N-terminal alanine and 6 histidines
# B2: wild type HPPD: Arabidopsis thaliana wild type HPPD polypeptide with N-terminal alanine and 6 histidine amino acids (protein)
# chain: MAHHHHHHQNAAVSENQNHDDGAASSPGFKLVGFSKFVRKNPKSDKFKVKRFHHIEFWCGDATNVARRFSWGLGMRFSAKSDLSTGNMVHASYLLTSGDLRFLFTAPYSPSLSAGEIKPTTTASIPSFDHGSCRSFFSSHGLGVRAVAIEVEDAESAFSISVANGAIPSSPPIVLNEAVTIAEVKLYGDVVLRYVSYKAEDTEKSEFLPGFERVEDASSFPLDYGIRRLDHAVGNVPELGPALTYVAGFTGFHQFAEFTADDVGTAESGLNSAVLASNDEMVLLPINEPVHGTKRKSQIQTYLEHNEGAGLQHLALMSEDIFRTLREMRKRSSIGGFDFMPSPPPTYYQNLKKRVGDVLSDDQIKECEELGILVDRDDQGTLLQIFTKPLGDRPTIFIEIIQRVGCMMKDEEGKAYQSGGCGGFGKGNFSELFKSIEEYEKTLEAKQLVG
# modifications: misc_feature 1..1353 Nucleic acid sequence encoding Arabidopsis HPPD plus containingat the 5' end a nucleic acid encoding an Ala and 6 His aminoacids; misc_feature 4..6 sequence coding for an Ala; misc_feature 7..24 sequence coding for an His Tag containing 6 His
# B3: N282A: point mutant N282A of A. thaliana HPPD with N-terminal alanine and 6 histidines (protein)
# chain: MAHHHHHHQNAAVSENQNHDDGAASSPGFKLVGFSKFVRKNPKSDKFKVKRFHHIEFWCGDATNVARRFSWGLGMRFSAKSDLSTGNMVHASYLLTSGDLRFLFTAPYSPSLSAGEIKPTTTASIPSFDHGSCRSFFSSHGLGVRAVAIEVEDAESAFSISVANGAIPSSPPIVLNEAVTIAEVKLYGDVVLRYVSYKAEDTEKSEFLPGFERVEDASSFPLDYGIRRLDHAVGNVPELGPALTYVAGFTGFHQFAEFTADDVGTAESGLNSAVLASNDEMVLLPIAEPVHGTKRKSQIQTYLEHNEGAGLQHLALMSEDIFRTLREMRKRSSIGGFDFMPSPPPTYYQNLKKRVGDVLSDDQIKECEELGILVDRDDQGTLLQIFTKPLGDRPTIFIEIIQRVGCMMKDEEGKAYQSGGCGGFGKGNFSELFKSIEEYEKTLEAKQLVG
# modifications: N-terminal alanine and His6 tag; encoded by SEQ ID No. 35; SITE 2 MISC_FEATURE - Ala; MISC_FEATURE - His Tag made of 6 His
# notes: point mutant N282A of A. thaliana HPPD with N-terminal alanine and 6 histidines
# What was measured:
# [1] = molecular target: T1, HPPD enzyme “SEQ ID No. 32”; experiment: HPLC assay of HPPD in vitro kinetic properties (Km, Vmax, kcat; Ki, Kon, Koff); assay type: biochemical; conditions: for kinetic parameter / sensitivity of Arabidopsis thaliana HPPD in presence of inhibitor: 2 mM HPP
# Procedure: Km, Vmax, and kcat values for different HPPD enzyme preparations and Ki, K1=Kon, and K−1=Koff for different HPPD inhibitors were determined using a HPLC assay for measurements of HPPD activity. […] All assays were started by the addition of HPPD enzyme to the assay mixture and stopped at a series of times between 0 and 240 s by addition of 200 μl of the reaction mixture to reaction assay tubes containing 20 μl 10% perchloric acid. Precipitated protein was pelleted by a 5 minute centrifugation at 10,000 g.
# For Km and Vmax value determinations the initial rates of the HPPD reaction at different substrate concentrations were determined from plots of HGA formed versus time and fitted to the Michaelis-Menten equation for unireactant enzymes using the ID Business Solutions Ltd. (www.idbs.com) XLfit software suite.
# [2] = molecular target: T3, Arabidopsis HPPD single point mutant SEQ ID No. 40 (Arabidopsis thaliana, UniProt P93836, V269A); experiment: biochemical; conditions: for pI50: V269A mutant (SEQ ID No. 40), 2 mM HPP, 3 minutes incubation
# T3 construct: made in house; host or cells: E. coli BL21 (DE3)
# T3 sequence (P93836 other isoform, or with tags, fused parts or gaps V269A): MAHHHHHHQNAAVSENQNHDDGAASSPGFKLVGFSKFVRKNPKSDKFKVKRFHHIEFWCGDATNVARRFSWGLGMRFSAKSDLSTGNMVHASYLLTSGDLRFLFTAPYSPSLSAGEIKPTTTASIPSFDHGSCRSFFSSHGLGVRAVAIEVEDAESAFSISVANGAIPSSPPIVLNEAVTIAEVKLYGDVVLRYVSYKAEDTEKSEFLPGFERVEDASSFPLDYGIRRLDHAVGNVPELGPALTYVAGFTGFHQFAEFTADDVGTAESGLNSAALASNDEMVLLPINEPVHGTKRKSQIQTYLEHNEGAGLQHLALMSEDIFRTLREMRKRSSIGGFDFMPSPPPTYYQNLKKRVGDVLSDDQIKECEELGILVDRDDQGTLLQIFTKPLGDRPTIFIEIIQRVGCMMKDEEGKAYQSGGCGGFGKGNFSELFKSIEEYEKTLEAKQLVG
# From the text: (§1) In this content, pI50-value means the log value of the concentration of inhibitor necessary to inhibit 50% of the enzyme activity in molar concentration.
# [3] = molecular target: T4, Arabidopsis HPPD single point mutant SEQ ID No. 44 (Arabidopsis thaliana, UniProt P93836, L368M); experiment: biochemical; conditions: for pI50: L368M mutant (SEQ ID No. 44), 2 mM HPP, 3 minutes incubation
# T4 construct: made in house; host or cells: E. coli BL21 (DE3)
# T4 sequence (P93836 other isoform, or with tags, fused parts or gaps L368M): as the sequence (P93836 other isoform, or with tags, fused parts or gaps V269A) above, with A274V, L373M counted along it
# From the text: as §1
# [4] = molecular target: T5, Arabidopsis HPPD single point mutant SEQ ID No. 48 (Arabidopsis thaliana, UniProt P93836, K421Q); experiment: biochemical; conditions: for pI50: K421Q mutant (SEQ ID No. 48), 2 mM HPP, 3 minutes incubation
# T5 construct: made in house; host or cells: E. coli BL21 (DE3)
# T5 sequence (P93836 other isoform, or with tags, fused parts or gaps K421Q): as the sequence (P93836 other isoform, or with tags, fused parts or gaps V269A) above, with A274V, K426Q counted along it
# From the text: as §1
# [5] = molecular target: T6, Arabidopsis HPPD single point mutant SEQ ID No. 50 (Arabidopsis thaliana, UniProt P93836, K421V); experiment: biochemical; conditions: for pI50: K421V mutant (SEQ ID No. 50), 2 mM HPP, 3 minutes incubation
# T6 construct: made in house; host or cells: E. coli BL21 (DE3)
# T6 sequence (P93836 other isoform, or with tags, fused parts or gaps K421V): as the sequence (P93836 other isoform, or with tags, fused parts or gaps V269A) above, with A274V, K426V counted along it
# From the text: as §1
# [6] = molecular target: T7, Arabidopsis HPPD single point mutant SEQ ID No. 42 (Arabidopsis thaliana, UniProt P93836, P280A); experiment: biochemical; conditions: for pI50: P280A mutant (SEQ ID No. 42), 2 mM HPP, 3 minutes incubation
# T7 construct: made in house; host or cells: E. coli BL21 (DE3)
# T7 sequence (P93836 other isoform, or with tags, fused parts or gaps P280A): as the sequence (P93836 other isoform, or with tags, fused parts or gaps V269A) above, with A274V, P285A counted along it
# From the text: as §1
# [7] = molecular target: T8, Arabidopsis HPPD single point mutant SEQ ID No. 35 (Arabidopsis thaliana, UniProt P93836, E252S); experiment: biochemical; conditions: for pI50: E252S mutant, 2 mM HPP, 3 minutes incubation
# T8 construct: made in house; host or cells: E. coli BL21 (DE3)
# T8 sequence (P93836 whole entry E252S): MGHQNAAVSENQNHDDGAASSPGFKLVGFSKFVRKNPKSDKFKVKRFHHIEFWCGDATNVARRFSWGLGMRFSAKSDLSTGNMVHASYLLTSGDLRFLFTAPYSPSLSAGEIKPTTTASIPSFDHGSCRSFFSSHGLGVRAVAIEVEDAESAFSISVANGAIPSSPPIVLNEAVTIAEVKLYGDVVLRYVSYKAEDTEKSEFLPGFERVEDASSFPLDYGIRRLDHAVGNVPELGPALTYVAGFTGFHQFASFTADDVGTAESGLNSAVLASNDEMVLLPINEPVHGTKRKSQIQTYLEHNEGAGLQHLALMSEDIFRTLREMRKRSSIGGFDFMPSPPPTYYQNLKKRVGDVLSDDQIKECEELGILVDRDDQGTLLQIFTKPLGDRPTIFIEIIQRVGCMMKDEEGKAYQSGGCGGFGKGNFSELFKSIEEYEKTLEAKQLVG
# From the text: as §1
# [8] = molecular target: T9, Arabidopsis HPPD single point mutant SEQ ID No. 46 (Arabidopsis thaliana, UniProt P93836, K421I); experiment: biochemical; conditions: for pI50: K421I mutant (SEQ ID No. 46), 2 mM HPP, 3 minutes incubation
# T9 construct: made in house; host or cells: E. coli BL21 (DE3)
# T9 sequence (P93836 other isoform, or with tags, fused parts or gaps K421I): as the sequence (P93836 other isoform, or with tags, fused parts or gaps V269A) above, with A274V, K426I counted along it
# From the text: as §1
# [9] = molecular target: T2, Arabidopsis thaliana wild type HPPD “SEQ ID No. 32”; experiment: pI50 determination from dose-response plots of HPPD activity (standard spectrophotometric assay of WO 2009/144079); assay type: biochemical
# From the text: as §1
# [10] = system: HPPD activity; experiment: Colorimetric screening test for active HPPD enzymes (production of brown color); assay type: cell-based, Escherichia coli; conditions: E. coli with pSE420-HPPDx, 5 mM L-Tyrosine, 16 hours at 37° C.
# Procedure: (§2) A YT-broth-type culture medium with 1% agarose, 5 mM L-Tyrosine and 42 mM Succinate, which contains the selection agent for the vector pSE420 (Invitrogen, Karlsruhe, Germany) is poured into deep well plates. E. coli culture in the exponentional growth phase which contains the vector pSE420-HPPDx (HPPDx means any gene coding for a putative HPPD enzyme/protein) is applied to each well.
# as §2, with “pSE420” for “pSE420 (Invitrogen, Karlsruhe, Germany)”, “(any” for “(HPPDx means any”
# It can be concluded that the two HPPD mutants are not able to convert HPP into homogentisate. […] One can conclude that the amino acid positions 267 and 282 (referring to position in SEQ ID No. 2) are essential for HPPD activity.
# [11] = SEQ ID No. 32 (wild type), 2 mM HPP, 3 minutes incubation
# [12] = substrate HPP varied 10-400 μM, HPPD SEQ ID No. 32, HPLC assay
molecule,measurement,setting,value
"CS(=O)(=O)c1cc(C(F)(F)F)ccc1C(=O)C(C#N)C(=O)C1CC1 (stereo not drawn) [Diketonitrile, 2-cyano-3-cyclopropyl-1-(2-methylsulphonyl-4-trifluoromethylphenyl)-propane-1,3-dione]",kinetic parameter / sensitivity of Arabidopsis thaliana HPPD in presence of inhibitor,[1],sensitive in the similar range as the carrot HPPD
"CS(=O)(=O)c1ccc(C(=O)C2C(=O)CCCC2=O)c(Cl)c1COCC(F)(F)F [Tembotrione, 2-[2-chloro-4-(methylsulfonyl)-3-[(2,2,2,-tri-fluoroethoxy)methyl]benzoyl]-1,3-cyclo-hexanedione]",kinetic parameter / sensitivity of Arabidopsis thaliana HPPD in presence of inhibitor,[1],comparable range
same,IC50,[2],< 2.51 µM
same,IC50,[3],< 2.51 µM
same,IC50,[4],< 2.51 µM
same,IC50,[5],< 2.51 µM
same,IC50,[6],< 2.51 µM
"CS(=O)(=O)c1ccc(C(=O)C2C(=O)CCCC2=O)c(Cl)c1 [Sulcotrione, 2-[2-chloro-4-(methylsulfonyl)benzoyl]-1,3-cyclohexanedione]",IC50,[2],10 µM
same,IC50,[3],6.31 µM
same,IC50,[4],< 2.51 µM
same,IC50,[7],7.94 µM
same,IC50,[5],7.94 µM
same,IC50,[6],10 µM
same,IC50,[8],10 µM
Cc1nn(C)c(O)c1C(=O)c1ccc(C(F)(F)F)cc1S(C)(=O)=O [Pyrasulfotole],pI50,[2],4.4
same,pI50,[3],5.0
same,pI50,[4],4.8
same,pI50,[7],4.3
same,pI50,[5],4.4
same,pI50,[6],4.4
same,pI50,[8],4.3
same,pI50,"[9]; 2 mM fixed HPP concentration, 3 minutes fixed incubation time, inhibitor 2.5 × 10^−6 to 2.5 × 10^−4 M",5.4
same,pI50,[9]; [11],5.4
O=C(O)C(=O)Cc1ccc(O)cc1 [HPP],Km,[1]; [12],6.3 µM
same,Vmax,[1]; [12],1.2 µM
Cc1ccc(S(=O)(=O)Oc2c(C(=O)c3ccc(Cl)cc3Cl)c(C)nn2C)cc1 [Pyrazolat],pI50,[2],4.4
same,pI50,[3],4.9
same,pI50,[4],5.0
same,pI50,[7],4.7
same,pI50,[5],4.5
same,pI50,[6],4.7
same,pI50,[8],4.5
same,pI50,[9]; [11],5.4
Cc1ccc(C(=O)COc2c(C(=O)c3ccc(Cl)c(C)c3Cl)c(C)nn2C)cc1 [Benzofenap],IC50,[2],6.31 µM
same,IC50,[3],< 2.51 µM
same,IC50,[4],< 2.51 µM
same,IC50,[7],6.31 µM
same,IC50,[5],6.31 µM
same,IC50,[6],6.31 µM
same,IC50,[8],7.94 µM
"COCCOCc1nc(C(F)(F)F)ccc1C(=O)C1=C(O)C2CCC(C2)C1=O (stereo not drawn) [Bicyclopyrone, 4-hydroxy-3-[[2-[(2-methoxyethoxy)methyl]-6-(trifluoromethyl)-3-pyridinyl]carbonyl]bicyclo[3.2.1]oct-3-en-2-one]",IC50,[2],50.1 µM
same,IC50,[3],31.6 µM
same,IC50,[4],20 µM
same,IC50,[7],50.1 µM
same,IC50,[5],63.1 µM
same,IC50,[6],50.1 µM
same,IC50,[8],63.1 µM
"CS(=O)(=O)c1ccc(C(=O)C2C(=O)CCCC2=O)c([N+](=O)[O-])c1 [Mesotrione, 2-[4-(methylsulfonyl)-2-nitrobenzoyl]-1,3-cyclohexanedione]",IC50,[4],< 2.51 µM
B1,HPPD activity (production of brown color),[10],inactive
B2,HPPD activity (production of brown color),[10],strong brown color
B3,HPPD activity (production of brown color),[10],inactive
